# Source: patent US8093060B2, “Multisite phosphorylated peptide (protein) recognizing compound and detection method, imaging method, alzheimer's disease diagnosing method and reagent kit using the same” (Canon Kabushiki Kaisha, priority 2008, dated 2012)
# Key:
# tau aggregate = molecular target: T1, tau aggregate (Homo sapiens, UniProt P10636); assay: Fluorescence titration of tau aggregate against 100 nM BODIPY-Zn(Dpa); type: binding; settings: tau 0 to 320 nM against 100 nM BODIPY-Zn(Dpa), 37° C., 60 min
# T1 construct: made in house; host or cells: Escherichia coli
# Description: (§1) The ranges of concentrations at which a phosphorylated tau aggregate, a tau aggregate, and an amyloid β aggregate interact with BODIPY-Zn(Dpa) were examined by titration. Titration was performed in the range of tau concentrations of 0 to 320 nM (0 to 14 μg/mL) against 100 nM of BODIPY-Zn(Dpa). Using a solvent obtained by adding 10% DMSO and 10 μM Zn(NO3)2 to HBS (10 mM HEPES (pH 7.4), 150 mM NaCl), the solution was incubated at 37° C. for 60 min, and fluorescence was measured (excitation wavelength, 490 nm; fluorescence wavelength, 545 nm).
# [1] = molecular target: T2, phosphorylated tau aggregate (Homo sapiens, UniProt P10636); assay: Fluorescence titration of phosphorylated tau aggregate against 100 nM BODIPY-Zn(Dpa); type: binding; settings: compared with tau aggregate and amyloid β aggregate
# T2 construct: made in house; host or cells: Escherichia coli
# Description: as §1
# [2] = system: phosphorylated tau protein; assay: Fluorescence staining of AD-affected human brain hippocampal tissue sections, costaining with tau antibodies; settings: 10 μM probe
# Description: (§2) To investigate whether an excessively phosphorylated tau protein in brain tissues can be detected, a fluorescence staining experiment of hippocampal tissue sections from a human brain affected by Alzheimer (AD) and a normal brain was performed using BODIPY-Zn(Dpa). Specifically, hippocampal tissue sections from the AD-affected human brain or the normal brain were deparaffinized (xylene immersion for 5 min was repeated three times, then each section was immersed in 100%, 90%, 80% and 70% aqueous ethanol solution in stages [for 2 min each], and finally washed twice with water for 5 min), lipofuscin was removed (washed twice with PBS for 2 min, immersed in 0.25% by weight permanganate potassium/PBS for 30 min, washed twice with PBS for 2 min, immersed in 1% by weight oxalic acid and 1% by weight potassium pyrosulfate/PBS for 6 min and finally washed twice with PBS for 2 min), trypsin treatment was performed (washed twice with PBS-Tween at room temperature for 2 min and 0.05% Trypsin/PBS at 37° C. for 15 min), and finally washed twice with PBS-Tween at room temperature for 5 min, and costaining was performed using an antibody and BODIPY-Zn(Dpa). First, blocking was performed with 10% goat serum (37° C., 30 min) to remove 10% goat serum, then a primary antibody was added, and a reaction was performed at 4° C. for 17 to 19 h. […]
# [3] = molecular target: T3, nonphosphorylated Tau aggregate (n-Tau) (Homo sapiens, UniProt P10636); assay: Fluorescence staining of nonphosphorylated tau aggregate prepared in vitro; type: binding; settings: 10 μM dye
# T3 construct: made in house; host or cells: Escherichia coli
# Description: (§3) Tau proteins (8 μM) expressed by Escherichia coli and heparin (1.6 μM) were incubated at 37° C. for 20 days to prepare a tau aggregate. A phosphorylated tau aggregate was similarly prepared using tau proteins phosphorylated with GSK-3β in vitro. The results of Pro-Q diamond staining after performing SDS-PAGE confirmed that the in-vitro phosphorylation was performed with a phosphorylation degree of 6 mol P/mol Tau.
# (§4) 10 μM BODIPY-Zn(Dpa) or 10 μM thioflavine T (may be referred to as ThT) were added to the prepared tau aggregate or phosphorylated tau aggregate. After the addition, the mixture was washed twice with 0.5 mM Zn(NO3)2, and a suspension (0.5 μL) of the stained phosphorylated tau aggregate was air-dried on a cover glass and observed under a confocal laser scanning microscope (OLYMPUS FV-1000, Obj. lens 100×).
# [4] = Delivery of BODIPY-Zn(Dpa) into brain after intravenous administration; type: in vivo, ICR mouse; settings: i.v. 1 mg/kg; for percent of the dose per gram of the mouse brain: rounded; for content in the brain / content in the brain based on the dose: mouse
# Description: BODIPY-Zn(Dpa) was intravenously administered to an ICR mouse (male, 7 weeks old) to measure the delivery thereof into the brain in vivo. Specifically, BODIPY-Zn(Dpa) (400 μL of 50 μM HBS solution) was injected from the caudal vein at a dose of 1 mg/kg, and the brain was collected at 2 or 30 min after administration. The collected brain (424 to 488 mg) was homogenized in 3 mL of an HBS solution using a spatula and homogenized by ultrasonic irradiation. BODIPY-Zn(Dpa) contained in the brain was quantified by reverse-phase HPLC to obtain the content of BODIPY-Zn(Dpa) in the brain based on the dose (% ID/g: % injected dose per gram of the brain). Fluorescence from the compound (excitation, 520 nm; fluorescence, 545 nm) was utilized for detection by HPLC.
# [5] = molecular target: T4, phosphorylated tau aggregate (p-Tau) (Homo sapiens, UniProt P10636); assay: Fluorescence staining of phosphorylated tau aggregate prepared in vitro; type: binding
# T4 construct: made in house; host or cells: Escherichia coli
# Description: as §3, §4
# amyloid beta protein = assay: Fluorescence staining of AD-affected human brain hippocampal tissue sections, costaining with anti-Aβ antibody; settings: 10 μM probe
# Description: as §2
# Tau204-2163P = molecular target: T5, Tau204-2163P (Homo sapiens, UniProt P10636); assay: Fluorescence titration of BODIPY-Zn(Dpa) with Tau204-2163P; type: binding
# T5 construct: made in house; host or cells: chemical solid-phase synthesis
# Description: The phosphorylated peptide-recognizing ability of BODIPY-Zn(Dpa) compound 9 (hereinafter referred to as BODIPY-Zn(Dpa)) was evaluated by measuring fluorescence spectra. Measurement was performed under the following conditions: [BODIPY-Zn(Dpa)]=5 μM; pH 7.2; 50 mM HEPES buffer; and 25° C. The excitation wavelength was λex=530 nm. […] When Tau2P was excessively added, this change reached saturation. The […] calculated from the fluorescence changes was 2.75×10^5 M^−1.
# Fluorescence changes when peptide Tau204-2163P or Tau204-2162P used in Example 1 was added dropwise were measured to calculate the affinity (association constant).
# T4 sequence (P10636 1-441 isoform P10636-8): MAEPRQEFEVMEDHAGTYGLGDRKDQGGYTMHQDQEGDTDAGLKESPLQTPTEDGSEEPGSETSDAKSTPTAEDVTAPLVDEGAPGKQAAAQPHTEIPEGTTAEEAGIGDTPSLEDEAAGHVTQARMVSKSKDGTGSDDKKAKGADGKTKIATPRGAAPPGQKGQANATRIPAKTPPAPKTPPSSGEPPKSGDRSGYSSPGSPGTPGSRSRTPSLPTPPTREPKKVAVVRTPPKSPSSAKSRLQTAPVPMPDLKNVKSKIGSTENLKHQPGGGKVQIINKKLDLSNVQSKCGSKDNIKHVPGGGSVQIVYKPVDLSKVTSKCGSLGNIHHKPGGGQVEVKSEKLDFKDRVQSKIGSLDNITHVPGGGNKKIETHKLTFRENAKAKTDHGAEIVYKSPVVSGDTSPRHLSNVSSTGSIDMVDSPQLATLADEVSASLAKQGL
# T2 sequence (P10636 1-441 isoform P10636-8): as above
# T1 sequence (P10636 1-441 isoform P10636-8): as above
# T3 sequence (P10636 1-441 isoform P10636-8): as above
smiles,measurement,setting,value
CC1=C(c2ccc(CN(C)Cc3ccccn3)nc2)C(C)=[N+]2C1=C(c1cc(OCCOCCOCCO)cc(OCCOCCOCCO)c1)c1c(C)c(-c3ccc(CN(C)Cc4ccccn4)nc3)c(C)n1[B-]2(F)F.O=[N+]([O-])[O-].O=[N+]([O-])[O-].O=[N+]([O-])[O-].O=[N+]([O-])[O-].[Zn+2].[Zn+2] [BODIPY-Zn(Dpa)],concentration range of interaction,tau aggregate,in the range of nM
same,concentration at which fluorescence change occurred,[1],at the lowest concentration
same,coexistence of fluorescence with Tau-2 and AT8 antibody staining,[2],coexisted
same,staining of aggregate,[3],is not observed
same,percent of the dose per gram of the mouse brain,[4]; 2 min after administration,0.5%
same,percent of the dose per gram of the mouse brain,[4]; 30 min after administration,0.02%
same,content in the brain,[4]; 2 min after administration,99.3 pmol/g brain
same,content in the brain based on the dose,[4]; 2 min after administration,0.496 % ID/g
same,content in the brain,[4]; 30 min after administration,3.96 pmol/g brain
same,content in the brain based on the dose,[4]; 30 min after administration,0.020 % ID/g
same,staining of aggregate,[5]; p-Tau in the presence of pyrophosphoric acid (PPi),did not stain the aggregate
same,staining of aggregate,"[5]; p-Tau, 10 μM dye",could bind to and stain the p-Tau aggregate
same,coexistence of fluorescence with Aβ42 (anti-Aβ antibody) staining,amyloid beta protein,did not coexist
same,Association constant,"Tau204-2163P; Tau204-216 3P (i, i+4, i+6)",230000 M⁻¹
same,I/I0 - 1 at saturation,"Tau204-2163P; Tau204-216 3P (i, i+4, i+6)",0.25
same,detection of peptide by fluorescence change,Tau204-2163P; Tau204-2163P,could be detected
